Here are results for twelve compounds from US4503256A, “Phlorophenone derivatives, processes for preparing such compounds, uses and pharmaceutical compositions of phlorophenone compounds” (Noristan Limited, priority 1981, dated 1985).

In one data set the test system is S. AUREUS. The experiment in a line: Minimum Inhibitory Concentration (MIC), broth dilution in Brain Heart Infusion broth. To be noted: 37° C., 48 hours, Brain Heart Infusion broth; for MIC: Staphylococcus aureus, read-out: MIC S. AUREUS. The format is cell-based, Staphylococcus aureus. On the procedure:
(§1) For testing against the bacteria, concentrations of each of the compounds were prepared in Brain Heart Infusion broth (Oxoid CM225) in two-fold steps from 1000 μg/ml to 1 μg/ml. Solutions containing 1000 μg/ml were prepared by dissolving 20 mg of each compound in 5 ml of acetone and this was then made up to 20 ml with Brain Heart Infusion Broth. Serial two-fold dilutions were then prepared in the broth down to 1 μg/ml.
(§2) For testing against the bacteria each of the prepared test concentrations and acetone controls prepared in Brain Heart Infusion were dispensed in 2 ml amounts for each organism. A growth control of 2 ml of Brain Heart Infusion was included in each series.
(§3) To each of the prepared sets of concentrations of each compound were added 0.1 ml aliquots of the organism suspensions prepared as described previously. All the bottles were incubated at 37° C. for 48 hours in the case of the bacteria and from 5 to 15 days for the fungi (until growth controls had grown in each case).
(§4) After incubation the broths were examined for evidence of growth. The lowest concentration of the test compound which prevented growth was recorded as the Minimum Inhibitory Concentration (MIC).
A general note: In broth dilution the organism is exposed to a series of concentrations in liquid medium.

The subject of another data set is Mic. CANIS. Put plainly: Minimum Inhibitory Concentration (MIC), dilution in Sabouraud liquid medium. The format is cell-based. To be noted: 37° C., 5 to 15 days; for MIC: Microsporum canis. Here is the method:
(§5) For testing against the fungi, concentrations of each of the compounds were prepared in Sabouraud liquid medium in two-fold steps from 100 μg/ml to 0.1 μg/ml. 500 μg/ml solutions were prepared by dissolving 10 mg in 5 ml of acetone, made up to 20 ml with Sabouraud liquid medium. 4 ml of the 500 μg/ml concentration was then made up to 20 ml with Sabouraud liquid medium to give a concentration of 100 μg/ml. Serial two-fold dilutions were prepared from this in the same medium down to 0.1 μg/ml.
(§6) For the fungi the same procedure was followed using the concentrations made up in Sabouraud liquid medium. The Nystatin concentrations were also dispensed in 2 ml amounts for each organism. Growth controls of Sabouraud liquid medium were included in each series.
as §3, §4

For a further data set, the system named is Tr. RUBRUM. Described as above. The format is cell-based. To be noted: 37° C., 5 to 15 days; for MIC: Trichophyton rubrum. On the procedure:
as §5, §6, §3, §4

Another data set has as its system Tr. MENTAGROPHYTES
Described as above. The format is cell-based. The conditions noted are these: 37° C., 5 to 15 days; for MIC: Trichophyton mentagrophytes. Here is the method:
as §5, §6, §3, §4

A further data set concerns Sp. SCHENKII
The data set is described as above. The format is cell-based. To be noted: 37° C., 5 to 15 days. Here is the method:
as §5, §6, §3, §4

A further data set has as its system C. ALBICANS
The data set is described as above. The format is cell-based. To be noted: 37° C., 5 to 15 days; for MIC: Candida albicans. Here is the method:
as §5, §6, §3, §4

The subject of a further data set is CD-1 mice. Put plainly: Acute oral toxicity in CD-1 mice. The format is in vivo. The conditions noted are these: male and female CD-1 mice, dose levels 1000, 464, 215 and 100 mg/kg, 7 days observation. Here is the method: (§7) Male and female CD-1 mice were fasted for 18 hours prior to the experiment, but water was available ad libitum except during the observation period. The test compounds were prepared in 1% tragacanth and were administered orally to groups of two male and two female mice.
(§8) All compounds were tested at dose levels of 1000, 464, 215 and 100 mg/kg. Immediately after dosing, the mice were replaced in their "home" cage and were observed daily for 7 days post dose and any mortalities recorded.
(§9) The acute toxicities, as determined by the above procedure, of a number of representative compounds are given in the accompanying table.

The subject of a further data set is St. PYOGENES
The experiment in a line: Minimum Inhibitory Concentration (MIC), broth dilution in Brain Heart Infusion broth. The conditions noted are these: 37° C., 48 hours; for MIC: Streptococcus pyogenes. The format is cell-based. Here is the method:
as §1, §2, §3, §4

A short description of data set [1]: Acute oral toxicity in CD-1 mice. The format is in vivo. To be noted: mouse, in vivo, male and female CD-1 mice, dose levels 1000, 464, 215 and 100 mg/kg, 7 days observation. On the procedure: as §7, §8, §9
A further data set has as its system bacteria. The conditions noted are these: literature (W. Riedl); cited from earlier work.

In brackets after ≈: the same amount, converted by molar mass.

Consider “either 7-butyryl-4,6-dihydroxy-2-methyl-2,3-dihydrobenzofuran or 5-butyryl-4,6-dihydroxy-2-methyl-2,3-dihydrobenzofuran [Compound 35]”, for which the “MIC S. AUREUS” value in the data set on S. AUREUS is 125 µg/mL. Besides, the “MIC Mic. CANIS” value in the data set on Mic. CANIS is recorded as 12,5 μg/ml. Besides, in the data set with Tr. RUBRUM, the “MIC Tr. RUBRUM” value was 25 µg/mL. For the same compound, the “MIC Tr. MENTAGROPHYTES” value in the data set on Tr. MENTAGROPHYTES was found to be 25 µg/mL. Also, the “MIC Sp. SCHENKII” value in the data set on Sp. SCHENKII is 50 µg/mL. The “MIC C. ALBICANS” value in the data set on C. ALBICANS is 25 µg/mL. In the data set with CD-1 mice, this compound returned an LD50 of over 1000. In addition, the “MIC St. PYOGENES” value against St. PYOGENES stood at 32 µg/mL.
`CC(C)CCC(=O)c1c(O)cc2c(c1O)CCC(C)(C)O2` [Compound 33, 5,7-dihydroxy-2,2-dimethyl-6-isocaproyl chroman]: the MIC in the data set on S. AUREUS is 125 µg/mL (≈ 428 µM); with Mic. CANIS it was 100 µg/mL (≈ 342 µM); against Tr. RUBRUM it was 25 µg/mL (≈ 85.5 µM); with Tr. MENTAGROPHYTES, over 100 µg/mL; against Sp. SCHENKII it was over 100 µg/mL; with C. ALBICANS it was 100 µg/mL (≈ 342 µM). Moreover, the minimum inhibitory concentration (MIC) with St. PYOGENES worked out at 64 µg/mL (≈ 219 µM). In [1], the LD50 at 168 h is over 1000 mg/kg.
Turning to `CCCC(=O)c1c(O)cc(O)c(Cc2ccccc2)c1O` [Compound 24, 2-Butyryl-4-benzylphloroglucinol], the MIC in the data set on S. AUREUS worked out at 16 µg/mL (≈ 55.9 µM); against Mic. CANIS, 13 µg/mL (≈ 45.4 µM); in the data set on Tr. RUBRUM it was 6 µg/mL (≈ 21 µM); in the data set on Tr. MENTAGROPHYTES it was 13 µg/mL (≈ 45.4 µM); in the data set with Sp. SCHENKII it was 25 µg/mL (≈ 87.3 µM); in the data set with C. ALBICANS, 25 µg/mL (≈ 87.3 µM). Besides, the MIC in the data set with St. PYOGENES amounted to 8 µg/mL (≈ 27.9 µM). The compound also registered an LD50 at 168 h in data set [1] of 1000 mg/kg.
Turning to `CC(C)CCC(=O)c1c(O)cc(O)c2c1OC(C)(C)CC2` [Compound 31, 5,7-Dihydroxy-2,2-dimethyl-8-isocaproylchroman], the MIC turned out to be 16 µg/mL (≈ 54.7 µM) in the data set with S. AUREUS; 13 µg/mL (≈ 44.5 µM) against Mic. CANIS; 25 µg/mL (≈ 85.5 µM) in the data set on Tr. RUBRUM; 6 µg/mL (≈ 20.5 µM) against Tr. MENTAGROPHYTES; 6 µg/mL (≈ 20.5 µM) against Sp. SCHENKII; 100 µg/mL (≈ 342 µM) in the data set on C. ALBICANS. The compound further registered an MIC against St. PYOGENES of 8 µg/mL (≈ 27.4 µM). For the same compound, the LD50 at 168 h in data set [1] is over 1000 mg/kg.
In the case of `CCCCCCCC(=O)c1c(O)cc(O)c(CC=C(C)C)c1O` [Compound 11, 2-Octanoyl-4-(3-methylbuten-2-yl)phloroglucinol], the minimum inhibitory concentration (MIC) in the data set with S. AUREUS was 64 µg/mL (≈ 200 µM); against Mic. CANIS, 50 µg/mL (≈ 156 µM); with Tr. RUBRUM, 50 µg/mL (≈ 156 µM); against Tr. MENTAGROPHYTES, 100 µg/mL (≈ 312 µM); in the data set on Sp. SCHENKII it was over 100 µg/mL; against C. ALBICANS it was 100 µg/mL (≈ 312 µM). In the data set with St. PYOGENES, this compound displayed an MIC of 2 µg/mL (≈ 6.24 µM). In data set [1], this compound showed an LD50 at 168 h of 597 mg/kg.
For the compound `CC(C)=CCC1=C(O)C(O)(CC=C(C)C)C(=O)C(C(=O)CC(C)C)=C1O` (stereo not shown) [humulon], in the data set on bacteria, the “antibiotic / antibacterial activity (in words)” value was “certain antibiotic properties”.
As for `CC(C)=CCc1c(O)cc(O)c(C(=O)Cc2ccccc2)c1O` [Compound 6, 2Phenylacetyl-4-(3-methylbuten-2-yl)phloroglucinol], the MIC in the data set with S. AUREUS was 250 µg/mL (≈ 800 µM); in the data set with Mic. CANIS, 50 µg/mL (≈ 160 µM); in the data set on Tr. RUBRUM it was 25 µg/mL (≈ 80 µM); with Tr. MENTAGROPHYTES, 100 µg/mL (≈ 320 µM); against Sp. SCHENKII, 50 µg/mL (≈ 160 µM); in the data set on C. ALBICANS, over 100 µg/mL. Further, in the data set with St. PYOGENES, inhibition of growth (MIC) required 8 µg/mL (≈ 25.6 µM). This compound also gave an LD50 at 168 h in [1] of over 1000 mg/kg.
For `CC(C)=CCc1c(O)cc(O)c(C(=O)C2CCCCC2)c1O` [Compound 8, 2-Hexahydrobenzoyl-4-(3-methylbuten-2-yl)phloroglucinol], the minimum inhibitory concentration (MIC) in the data set with S. AUREUS turned out to be 32 µg/mL (≈ 105 µM); against Mic. CANIS, 6 µg/mL (≈ 19.7 µM); in the data set with Tr. RUBRUM, 6 µg/mL (≈ 19.7 µM); with Tr. MENTAGROPHYTES, 6 µg/mL (≈ 19.7 µM); against Sp. SCHENKII it was 13 µg/mL (≈ 42.7 µM); with C. ALBICANS it was 13 µg/mL (≈ 42.7 µM). Also, the MIC against St. PYOGENES amounted to 8 µg/mL (≈ 26.3 µM). The compound also came in with an LD50 at 168 h in [1] of over 1000 mg/kg.
Regarding `CC(C)=CCc1c(O)cc(O)c(C(=O)CCC(C)C)c1O` [Compound 7, 2-Isocaproyl-4-(3-methylbuten-2-yl)phloroglucinol], the MIC in the data set on S. AUREUS amounted to 16 µg/mL (≈ 54.7 µM); with Mic. CANIS, 6 µg/mL (≈ 20.5 µM); with Tr. RUBRUM, 6 µg/mL (≈ 20.5 µM); in the data set on Tr. MENTAGROPHYTES it was 6 µg/mL (≈ 20.5 µM); in the data set with Sp. SCHENKII, 25 µg/mL (≈ 85.5 µM); in the data set with C. ALBICANS it was 25 µg/mL (≈ 85.5 µM). The same compound registered a minimum inhibitory concentration (MIC) in the data set on St. PYOGENES of 8 µg/mL (≈ 27.4 µM). The compound also returned an LD50 at 168 h in data set [1] of 1000 mg/kg.
`C=CCc1c(O)cc(O)c(C(=O)Cc2ccc(Cl)cc2)c1O` [Compound 23]: the minimum inhibitory concentration (MIC) in the data set with S. AUREUS was 32 µg/mL (≈ 100 µM); in the data set with Mic. CANIS, 6 µg/mL (≈ 18.8 µM); in the data set with Tr. RUBRUM, 13 µg/mL (≈ 40.8 µM); in the data set with Tr. MENTAGROPHYTES, 13 µg/mL (≈ 40.8 µM); with Sp. SCHENKII, 25 µg/mL (≈ 78.4 µM); against C. ALBICANS, 13 µg/mL (≈ 40.8 µM). In addition, in the data set on St. PYOGENES, the MIC was determined as 8 µg/mL (≈ 25.1 µM). Also, the LD50 at 168 h in data set [1] was over 1000 mg/kg.
On to `CC(C)=CCC1=C(O)C(C(=O)CC(C)C)=C(O)C(CC=C(C)C)(CC=C(C)C)C1=O` [lupulone], for which, in the data set on bacteria, the “antibiotic / antibacterial activity (in words)” value was “certain antibiotic properties”.
Regarding `C=CCc1c(O)cc(O)c(C(=O)C2CCCCC2)c1O` [Compound 20], the MIC came to 32 µg/mL (≈ 116 µM) in the data set on S. AUREUS; 13 µg/mL (≈ 47 µM) against Mic. CANIS; 25 µg/mL (≈ 90.5 µM) in the data set on Tr. RUBRUM; 13 µg/mL (≈ 47 µM) in the data set with Tr. MENTAGROPHYTES; 25 µg/mL (≈ 90.5 µM) against Sp. SCHENKII; 25 µg/mL (≈ 90.5 µM) against C. ALBICANS. For the same compound, the minimal inhibitory concentration (MIC) with St. PYOGENES stood at 8 µg/mL (≈ 29 µM). In addition, the LD50 at 168 h in data set [1] is over 1000 mg/kg.

One may read the MIC as the lowest concentration that inhibits growth of the organism.
